Results published in ChEMBL document CHEMBL4385670, “Potent HIV-1 protease inhibitors incorporating squaramide-derived P2 ligands: Design, synthesis, and biological evaluation” (Bioorg Med Chem Lett, 2019).

Key:
Protease = Protease (Human immunodeficiency virus 1, UniProt Q9YQ12); experiment: Inhibition of HIV1 protease using Ac-Thr-Ile-Nle-Nle-Gln-Arg-NH2 substrate by continuous fluorometric assay
[1] = test system: Human immunodeficiency virus 1; experiment: Antiviral activity against HIV1 NL4-3 infected in human MT4 cells assessed as reduction in p24 Gag protein production incubated for 6 days and measured on day 7 by chemiluminescent enzyme immunoassay; assay type: functional, organism-based; details: Human immunodeficiency virus 1, NL4-3, MT4

Chain of Protease (Q9YQ12 whole entry): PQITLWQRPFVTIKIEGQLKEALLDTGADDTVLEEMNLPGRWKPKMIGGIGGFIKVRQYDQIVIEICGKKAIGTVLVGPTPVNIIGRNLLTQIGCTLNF

Row | SMILES | Ki (Protease) [nM] | IC50 [1] [nM]
1 | COc1ccc(S(=O)(=O)N(CC(C)C)C[C@@H](O)[C@H](Cc2ccccc2)Nc2c(N(C)[C@H]3CO[C@H]4OCC[C@H]43)c(=O)c2=O)cc1 | 4.5 | > 1000
2 | COc1ccc(S(=O)(=O)N(CC(C)C)C[C@@H](O)[C@H](Cc2ccccc2)Nc2c(O[C@H]3CCOC3)c(=O)c2=O)cc1 | 31.1 | > 1000
3 | COc1ccc(S(=O)(=O)N(CC(C)C)C[C@@H](O)[C@H](Cc2ccccc2)Nc2c(N(C)[C@@H]3CCOC3)c(=O)c2=O)cc1 | 0.51 | > 1000
4 | COCCOc1c(N[C@@H](Cc2ccccc2)[C@H](O)CN(CC(C)C)S(=O)(=O)c2ccc(OC)cc2)c(=O)c1=O | 1960 | > 1000
5 | COc1ccc(S(=O)(=O)N(CC(C)C)C[C@@H](O)[C@H](Cc2ccccc2)Nc2c(N[C@@H]3CO[C@@H]4OCC[C@@H]43)c(=O)c2=O)cc1 | 5.6 | > 1000
6 | COc1ccc(S(=O)(=O)N(CC(C)C)C[C@@H](O)[C@H](Cc2ccccc2)Nc2c(N[C@H]3CO[C@H]4OCC[C@H]43)c(=O)c2=O)cc1 | 54.8 | > 1000
7 | COc1ccc(S(=O)(=O)N(CC(C)C)C[C@@H](O)[C@H](Cc2ccccc2)Nc2c(N(C)[C@H]3CCOC3)c(=O)c2=O)cc1 | 397 | > 1000
8 | CCOc1c(N[C@@H](Cc2ccccc2)[C@H](O)CN(CC(C)C)S(=O)(=O)c2ccc(OC)cc2)c(=O)c1=O | 463 | > 1000
9 | COc1ccc(S(=O)(=O)N(CC(C)C)C[C@@H](O)[C@H](Cc2ccccc2)Nc2c(O[C@@H]3CCOC3)c(=O)c2=O)cc1 | 226 | > 1000
10 | COc1ccc(S(=O)(=O)N(CC(C)C)C[C@@H](O)[C@H](Cc2ccccc2)Nc2c(N[C@@H]3CCOC3)c(=O)c2=O)cc1 | 200 | > 1000
11 | COc1ccc(S(=O)(=O)N(CC(C)C)C[C@@H](O)[C@H](Cc2ccccc2)Nc2c(N(C)[C@@H]3CO[C@@H]4OCC[C@@H]43)c(=O)c2=O)cc1 | 201 | > 1000
12 | COc1ccc(S(=O)(=O)N(CC(C)C)C[C@@H](O)[C@H](Cc2ccccc2)Nc2c(N[C@H]3CCOC3)c(=O)c2=O)cc1 | 6100 | > 1000
